Test results as given in PMC4414177, “A novel orally active water-soluble inhibitor of human glutathione transferase exerts a potent and selective antitumor activity against human melanoma xenografts” (Oncotarget, 2015).

Key:
G-361 = test: Cell growth inhibition, SRB assay; format: cell-based; conditions: Homo sapiens, G-361, 48 h
Procedure: (§1) The IC50 values for each compound were then evaluated by the SRB assay.

A375 = test: Cell growth inhibition, SRB assay; format: cell-based; conditions: Homo sapiens, A-375, A375, 48 h
Procedure: as §1

IST-MEL-1 = test: Cell growth inhibition, SRB assay; format: cell-based; conditions: Homo sapiens, IST-MEL-1, 48 h
Procedure: as §1

SK23-MEL = test: Cell growth inhibition, SRB assay; format: cell-based; conditions: Homo sapiens, 48 h
Procedure: as §1

MALME-3M = test: Cell growth inhibition, SRB assay; format: cell-based; conditions: Homo sapiens, 48 h
Procedure: as §1

SK23-MEL tumors = test: Histological analysis of SK23-MEL tumors; format: in vivo, mice; conditions: SK23-MEL xenografts, MC3181-treated
Text: (§2) At sacrifice, tumors were removed, formalin-fixed and paraffin embedded. All internal organs were fixed and paraffin embedded for the morphological study to evaluate drug effects in normal tissues. Three μm-thick sections were cut and stained with haematoxylin and eosin (H&E). Two observers blindly classified the tissues for necrotic areas, evaluated as percent of total area, mitosis number in 10 high power field randomly selected away from the ischemic necrosis.

SK23-MEL cells [1] = test: Cell morphology (phase-contrast microscopy); format: cell-based, human; conditions: 7 μM, 48 hrs
GSTM2-2 = biological target: T1, GSTM2-2 (Homo sapiens, UniProt P28161); test: Inhibition of GSTM2-2 conjugation activity; format: biochemical; conditions: GSTM2-2 5 nM
T1 construct: made in house; host or cells: Escherichia coli
T1 sequence (P28161 1-218): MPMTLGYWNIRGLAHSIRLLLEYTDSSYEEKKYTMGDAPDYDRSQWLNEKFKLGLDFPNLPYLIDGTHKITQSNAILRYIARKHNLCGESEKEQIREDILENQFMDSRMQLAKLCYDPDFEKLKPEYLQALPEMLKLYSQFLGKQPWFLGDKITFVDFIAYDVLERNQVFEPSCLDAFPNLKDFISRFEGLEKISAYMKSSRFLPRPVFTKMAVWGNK
Procedure: Human GSTM2-2, GSTP1-1, JNK1a2 and TRAF2 were expressed in Escherichia coli and purified as previously described; protein concentration was determined using the Lowry colorimetric assay. Unless specified otherwise, all chemicals were purchased from Sigma-Aldrich S.r.l. (Milan, Italy).
GST activity was determined spectrophotometrically at 340 nm (ε = 9,600 M^−1 cm^−1), as previously reported. Inhibition experiments were performed by measuring GSTP1-1 (20 nM) or GSTM2-2 (5 nM) activities in the presence of various amounts of the selected NBD derivative (from 0.1 to 20 μM with GSTP1-1, and from 0.005 and 1 μM with GSTM2-2). Fifty percent inhibitory concentration (IC50) values were calculated by fitting the data to Equation 1, where ν is the percentage of the saturated binding sites; [P]t is the total GST concentration and [L]t is the total inhibitor concentration, assuming a 1:1 interaction stoichiometry between the inhibitor and one GST subunit, as well as that the binding sites are equal and independent.

SK23-MEL cells [2] = test: Tyrosinase activity; format: cell-based, human; conditions: 7 μM, 48 hrs, p < 0.005
Procedure: (§3) Cells (1×10^6) were lysed in 1M NaOH at 100°C, for 1 hour and then centrifuged at 15,000 g, for 20 minutes. […] Tyrosinase activity was examined by measuring spectrophotometrically at 475 nm the rate of L-DOPA oxidation to dopachrome over 1 hour at 37°C. Cells [1×10^6 in 40 μl of 20 mM potassium phosphate buffer (pH 6.8) containing 1% Triton X-100 and 1 mM PMSF] were disrupted by freezing and thawing and centrifuged at 15,000 g for 20 minutes at 4°C. The assay was started by addition of 100 μl of 2 mg/ml L-DOPA to 40 μl of supernatant. Tyrosinase activity was expressed as change in absorbance, per hour, per 10^6 cells.

SK23-MEL cells [3] = test: Melanin content; format: cell-based, human; conditions: 7 μM, 48 hrs, p < 0.05
Procedure: as §3

[4] = test system: SK23-MEL human melanoma cells; test: SK23-MEL cellular xenograft model, antitumor efficacy; format: in vivo, mice; conditions: 8 mg/kg/day i.v. or oral, q1dx5 three weeks
Procedure: (§4) SK23-MEL and G-361 cells were injected s.c. (in both cases, 1×10^6) into the right flank of NOD/SCID and SCID male mice, respectively. Animals were randomly divided in groups of 6 mice and treatments were started at day 10 (SK23-MEL) and 14 (G-361), when tumors were clearly palpable.
(§5) Primary tumor growth was determined for all animals by caliper measurement (minor and major axis length), three times per week, until they were sacrificed. Primary tumor volume was determined using the following equation: V (cm^3)=(α^2×β)/2 (Eq. 3)
(§6) The efficacy of the treatment was also analyzed by calculation of the percentage of Increase in Life Span (% ILS), since this analysis gives an evidence of clinical potency. Survival endpoint for each animal was fixed at the day when tumor volume reached 1.0 cm^3 (A375) or 0.4 cm^3 (SK23-MEL and G-361), and data were used to plot the relative Kaplan-Meier curves. Treatment efficacy was then evaluated by comparing the Median Survival Time (MST) of treated group with the MST of control group, and expressed as percentage of ILS: % ILS=[100×(MSTtreated group)/(MSTcontrol group)]−100 (Eq. 4)
(§7) Treatment was considered effective when % ILS > 20%.

A375 tumor xenografts = test: Immunohistochemical analysis of A375 tumor xenografts; format: in vivo, mice
Text: as §2
Briefly, 3-μm-thick sections were pre-treated with EDTA citrate pH 7.8, for 30 min, at 95°C and then incubated respectively with rabbit monoclonal anti-Phospho-SAPK/JNK (1:100, 81E11, Cell Signaling, Danvers Massachusetts, USA) and rabbit polyclonal anti-Caspase3, for 60 min (1:100, PA5-16335, ThermoFisher Scientific, Walthman, MA, USA). Washing were performed with PBS 4% + Tween20, pH 7.6, by UCS diagnostic.

[5] = test system: G-361 human melanoma cells; test: G-361 cellular xenograft model, antitumor efficacy; format: in vivo, mice; conditions: G-361 xenograft
Procedure: as §4, §5, §6, §7

[6] = test system: five cultured human melanoma cell lines; test: Cell growth inhibition, SRB assay, whole panel; format: cell-based; conditions: range over A375, G-361, MALME-3M, IST-MEL-1, SK23-MEL
Procedure: as §1

With O=[N+]([O-])c1ccc(SCCOCCOCCO)c2nonc12 [MC3181, 2-(2-(2-((7-nitrobenzo[c][1,2,5]oxadiazol-4-yl)thio)ethoxy)ethoxy)ethanol] the IC50 (G-361) was 780 ± 40 nM, the IC50 (A375) was 2310 ± 40 nM and the IC50 (IST-MEL-1) was 920 ± 70 nM. The IC50 (SK23-MEL) was 1790 ± 50 nM, the IC50 (MALME-3M) was 2420 ± 160 nM and the tumor histology (SK23-MEL tumors) was “melanin production”. The cell morphology (SK23-MEL cells [1]) was “clear morphological changes”, the IC50 (GSTM2-2) was 81 ± 13 nM and the tyrosinase activity (SK23-MEL cells [2]) was “significant increase”. The melanin content (SK23-MEL cells [3]) was “significant increase”, the ILS [4] was under 20% and the tumor growth [4] was “a certain degree of delay in tumor growth”. For the same molecule, the “higher apoptosis compared to untreated controls” value (A375 tumor xenografts; A375 tumor xenografts, data not shown) was “about 20%”, the “JNK phosphorylation and caspase-3 in tumors” value (A375 tumor xenografts; A375 xenografts, 8 mg/kg, P-JNK 6 hrs after treatment, caspase-3 at end of treatment) was “significant increase of JNK phosphorylation and caspase-3 activity” and the “animals still alive at the end of the observation period” value ([5]; 8 mg/kg/day oral) was 50%. The disease course ([5]; 8 mg/kg/day oral) was “stabilization and regression of the disease in half of the treated mice”, the tumor growth ([5]; 8 mg/kg/day, both administration routes (i.v., oral)) was “significant delay in tumor growth” and the IC50 [6] was 800 to 2400 nM.
